Reference: patent publication US6667040B2, “Bovine footrot treatment and prevention” (University Technologies International, Inc., priority 1997, dated 2003)

Key:
Type in all cases: cell-based
[1] = test system: Prevotella intermedia (5-2); test: Penicillin G disc diffusion susceptibility test; settings: with regrowth
[2] = test system: Bacteroides fragilis (7-6); test: Penicillin G disc diffusion susceptibility test
[3] = test system: Prevotella intermedia (8-2); test: Penicillin G disc diffusion susceptibility test; settings: with regrowth
[4] = test system: Prevotella intermedia (14-7); test: Penicillin G disc diffusion susceptibility test
[5] = test system: Isolates of Porphyromonas levii; test: Penicillin G susceptibility of Porphyromonas levii isolates
[6] = disc with 10 units penicillin G

CC1(C)S[C@@H]2[C@H](NC(=O)Cc3ccccc3)C(=O)N2[C@H]1C(=O)O [penicillin G]
P2 zone of inhibition ([1]; disc with 2 units penicillin G): 22 mm
P10 zone of inhibition [1, 6]: 28 (with regrowth) mm
susceptibility to penicillin ([2]; disc diffusion): clearly resistant
P2 zone of inhibition ([2]; disc with 2 units penicillin G): 0 mm
P10 zone of inhibition [2, 6]: 0 mm
P2 zone of inhibition ([3]; disc with 2 units penicillin G): 27 mm
P10 zone of inhibition [3, 6]: 35 (with regrowth) mm
P2 zone of inhibition ([4]; disc with 2 units penicillin G): 34 (with mm
regrowth within P2 zone of inhibition ([4]; disc with 2 units penicillin G, regrowth around the disc): 22 mm regrowth)
P10 zone of inhibition [4, 6]: 38 mm
regrowth within P10 zone of inhibition ([4]; disc with 10 units penicillin G, regrowth around the disc): 23 mm
susceptibility to penicillin G [5]: sensitive
